One assay has as its target T1, D-2 receptor (Rattus norvegicus, UniProt P61169).
T1 construct: Striatal tissue was excised, pooled, and homogenized; tissue Charles River Breeding Laboratories, Mass; (animals); host or cells: striatum of male Sprague-Dawley rats, washed membrane pellet
Description: Competitive inhibition assay vs. 3H-spiperone (D-2 receptor binding). The arrangement: species or system Male Sprague-Dawley rat (striatal tissue). The note with it: rat striatal homogenate, 0.2 nM 3H-spiperone, pH 7.4, 37° C., 15 min. The procedure:
(§1) Many compounds capable of effecting reproducible physiological changes in neural tissues are believed to operate by binding at one or more receptor sites.
(§2) Tritiated SCH 23390 and tritiated spiperone (a potent D-2 ligand) were obtained as described in the Billard et al. reference supra and serially diluted in 0.05 M Tris buffer, pH 7.4, as required. A compound of the invention is diluted in 0.05 M Tris buffer, pH 7.4, as required.
(§3) Male Sprague-Dawley rats (200 to 250 g) from Charles River Breeding Laboratories, Mass. were used to obtain brain tissue. The rats were humanely sacrificed and their brains removed and placed on ice. Striatal tissue was excised, pooled, and homogenized (Brinkman Polytron, 10 sec) in 100 volumes (w/v) of ice cold 50 mM Tris buffer, pH 7.4 (at 25° C.). The homogenate was centrifuged at 20,000 xg for 10 min. The resultant pellet was rehomogenized in Tris buffer and centrifuged again. The final pellet was resuspended in 50 mM Tris buffer pH 7.4 containing 120 mM NaCl, 5 mM KCl, 2 mM CaCl2, and 1 mM MgCl2.
(§4) Polypropylene incubation tubes received 100 μl of the individual test compounds at various concentrations dissolved or suspended in 0.05 M Tris, pH 7.4 containing 4 mg/ml methylcellulose, 100 μl of a solution of ^3 H-SCH 23390 in Tris buffer (final reaction mixture concentration =0.3 nM) or 100 μl of a solution of 3H-spiperone in Tris buffer (final concentration =0.2 nM) and 800 μl of tissue suspension (ca. 3 mg/assay). Tubes were incubated at 37° C. for 15 minutes and rapidly vacuum filtered through Whatman GF/B filters and rinsed 4 times with 4 ml of ice cold 50 mM Tris buffer, pH 7.4. The filters were transferred to scintillation vials, equilibated with 10 ml of scintillant (Scintosol, Isolab, Inc.) for 16 hours at 25° C. and the radioactivity determined in a liquid scintillation counter. Ki values were determined as described by Billard et al. using the relationship Ki =IC50 /(1+([L]/KD)) wherein IC50 =concentration of test drug necessary to displace 50% of specifically bound ^3 H-Sch 23390, [L]=concentration of radioligand used in the assay, and KD =dissociation constant.

A further assay addresses T2, dopamine D-1 receptor (Rattus norvegicus, UniProt P18901).
T2 construct: Striatal tissue was excised, pooled, and homogenized; tissue Charles River Breeding Laboratories, Mass; (animals); host or cells: striatum of male Sprague-Dawley rats, washed membrane pellet
In words: Competitive inhibition assay vs. 3H-SCH 23390 (dopamine D-1 receptor binding). Details: species or system Male Sprague-Dawley rat (striatal tissue). The procedure:
as §1, §2, §3, §4

Assay [1] deals with conditioned avoidance response (CAR). Description: Conditioned avoidance suppression in rats (Rat CAR). The class given is in vivo. The note with it: lowest dose that significantly (P<0.05) reduced avoidance responding, read-out: Rat CAR, minimal effective dose (MED). As for the experimental part:
N. Y. Acad. Sci. 66, 740 (1957)}. A series of experiments was carried out to assess the ability of the compounds of this invention to suppress the conditioned avoidance response (CAR) in rats.
Rats were required to jump onto a platform located 6.75 inches (17.15 cm) above the grid floor of an experimental chamber in response to a 5-second tone to avoid a 10-second foot shock (0.6 ma). Each experimental session consisted of 20 such trials presented at 30-second intervals. A correct CAR is scored whenever the rat jumps onto the platform during the tone (prior to foot shock). An escape response is scored when the rat jumps onto the platform during a shock. A response failure is defined as the lack of an escape response during the 10-second shock period.
Groups of 6-8 rats were trained in two consecutive days (total of 40 trials). Rats that reached criterion on day 2 (correct CARs on 16 or more of the 20 trials) were treated with either a test drug or vehicle on day 3. Suppression of CAR was analyzed statistically using Student's t-test comparing the performances of drug-treated to vehicle-treated rats.

Like-named read-outs stand apart in the source and are kept apart here.

T2 sequence (P18901 whole entry): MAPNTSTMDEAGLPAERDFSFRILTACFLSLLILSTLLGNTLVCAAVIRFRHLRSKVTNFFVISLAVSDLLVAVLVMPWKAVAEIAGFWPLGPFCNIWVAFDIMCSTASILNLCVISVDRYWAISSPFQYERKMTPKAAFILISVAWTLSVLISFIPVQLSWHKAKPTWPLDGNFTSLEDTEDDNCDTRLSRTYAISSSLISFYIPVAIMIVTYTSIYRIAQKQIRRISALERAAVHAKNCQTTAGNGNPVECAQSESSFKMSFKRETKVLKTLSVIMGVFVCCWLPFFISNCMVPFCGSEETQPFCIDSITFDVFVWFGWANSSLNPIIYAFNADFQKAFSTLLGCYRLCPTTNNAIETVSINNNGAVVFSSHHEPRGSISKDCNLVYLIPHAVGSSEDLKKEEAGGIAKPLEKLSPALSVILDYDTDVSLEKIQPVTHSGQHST
T1 sequence (P61169 whole entry): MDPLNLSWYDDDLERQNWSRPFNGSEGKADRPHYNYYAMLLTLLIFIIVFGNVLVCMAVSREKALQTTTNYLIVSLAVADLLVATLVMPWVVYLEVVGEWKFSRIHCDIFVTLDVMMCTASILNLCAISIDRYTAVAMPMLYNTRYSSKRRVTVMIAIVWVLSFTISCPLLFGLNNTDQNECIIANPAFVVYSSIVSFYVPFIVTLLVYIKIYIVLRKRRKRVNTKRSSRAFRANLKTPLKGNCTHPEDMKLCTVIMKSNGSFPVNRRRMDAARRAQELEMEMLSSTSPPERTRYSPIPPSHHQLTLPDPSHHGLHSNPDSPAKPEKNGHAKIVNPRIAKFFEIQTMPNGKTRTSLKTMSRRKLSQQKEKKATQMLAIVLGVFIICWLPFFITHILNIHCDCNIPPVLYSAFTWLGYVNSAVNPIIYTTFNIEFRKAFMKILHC

For `CCOC1CN(C)CCc2cc(Cl)c(O)cc21` (centres unmarked) [Compound 2, 8-chloro-5-ethoxy-3-methyl-2,3,4,5-tetrahydro-lH-3-benzazepine-7-ol], the inhibitory constant (Ki) was determined as 7.72 µM on D-2 receptor and 0.034 µM on dopamine D-1 receptor. In addition, the minimal effective dose is greater than 30 mg/kg in assay [1] (po) and 1 mg/kg in assay [1] (sc).

In the case of `COC1CN(C)CCc2cc(Cl)c(O)cc21` (centres unmarked) [Compound 1, 8-chloro-5-methoxy-3-methyl-2,3,4,5-tetrahydro-lH-3-benzazepine-7-ol], the Ki on D-2 receptor turned out to be 5.6 µM; on dopamine D-1 receptor it was 0.054 µM. Also, the minimal effective dose was greater than 30 mg/kg in assay [1] (po) and 1 mg/kg in assay [1] (sc).

In general, Ki refers to a dissociation constant, usually derived from enzyme kinetics or from competition with a known ligand. Higher therefore signals lower affinity. Broadly, the minimal effective dose is the smallest amount tested that counted as effective.

The values above are taken from US5015639A, “Substituted benzazepines, their preparation and pharmaceutical compositions containing them” (Schering Corporation, priority 1989, dated 1991).
